Assay [1] deals with isolated recombinant JAK1 kinase domain (Homo sapiens (Human), UniProt P23458). Description: JAK1 enzyme assay (Caliper LabChip, peptide phosphorylation). The format is biochemical. Particulars: isolated recombinant JAK1 kinase domain, 25 μM ATP.
The target of assay [2] is isolated recombinant JAK2 kinase domain (Homo sapiens (Human), UniProt O60674). Description: JAK2 enzyme assay (Caliper LabChip, peptide phosphorylation). Type of assay: biochemical. The settings on record: 25 μM ATP.
Sequence of isolated recombinant JAK2 kinase domain (O60674 849-1124): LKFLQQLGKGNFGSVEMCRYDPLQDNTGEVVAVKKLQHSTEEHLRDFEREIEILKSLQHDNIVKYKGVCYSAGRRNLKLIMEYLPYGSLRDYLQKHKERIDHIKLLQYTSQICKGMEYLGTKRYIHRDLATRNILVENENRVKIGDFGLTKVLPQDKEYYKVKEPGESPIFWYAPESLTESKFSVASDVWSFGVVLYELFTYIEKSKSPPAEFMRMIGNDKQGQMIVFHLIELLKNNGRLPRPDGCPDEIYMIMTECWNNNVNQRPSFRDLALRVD
Assay [3] relates to JAK1-dependent STAT6 phosphorylation downstream of IL-13 stimulation in TF-1 human erythroleukemia cells. Description: JAK1 pathway assay in TF-1 cells (IL-13-pSTAT6, MSD). The format is cell-based. Particulars: read-out: IL13-pSTAT6 EC50_TF-1. Put shortly: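 Cells were preincubated with compounds (0.2% DMSO) for 30 min (TF-1, GM-CSF-starved overnight, serum-free OptiMEM, 300,000 cells/well) or 1 h (BEAS-2B, complete medium, 100,000 cells/well) at 37 °C.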

Molecules are shown by their SMILES. Read-outs that look alike come from different tables or passages of the source.

Sequence of isolated recombinant JAK1 kinase domain (P23458 875-1153): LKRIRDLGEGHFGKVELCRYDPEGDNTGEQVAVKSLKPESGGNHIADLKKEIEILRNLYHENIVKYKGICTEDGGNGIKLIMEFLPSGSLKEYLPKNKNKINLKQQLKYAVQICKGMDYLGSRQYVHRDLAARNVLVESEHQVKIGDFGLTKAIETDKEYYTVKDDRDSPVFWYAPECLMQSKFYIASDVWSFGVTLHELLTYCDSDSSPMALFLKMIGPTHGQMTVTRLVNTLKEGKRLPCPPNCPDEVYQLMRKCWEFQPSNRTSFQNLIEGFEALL

Usually Ki stands for the equilibrium dissociation constant of an inhibitor or competing ligand from its target. For `O=C(Nc1cn(CC(=O)N2C[C@H]3CN(CCCN4CCOC4=O)C[C@H]3C2)nc1-c1cc(Cl)ccc1OC(F)F)c1cnn2cccnc12` [Example 32, N-[1-[2-[(3aS,6aR)-2-[3-(2-oxooxazolidin-3-yl)propyl]-1,3,3a,4,6,6a-hexahydropyrrolo[3,4-c]pyrrol-5-yl]-2-oxo-ethyl]-3-[5-chloro-2-(difluoromethoxy)phenyl]pyrazol-4-yl]pyrazolo[1,5-a]pyrimidine-3-carboxamide], the Ki is 0.46 nM in assay [1] and 0.5 nM in assay [2]. For the same compound, the EC50 in assay [3] (Homo sapiens, TF-1, TF-1 cells) amounted to 98.5 nM.
For `O=C(Nc1cn(CC(=O)N2C[C@H]3CN(CC4CCN(C(=O)C5CCOCC5)CC4)C[C@H]3C2)nc1-c1cc(Cl)ccc1OC(F)F)c1cnn2cccnc12` [Example 35, N-[1-[2-[(3aR,6aS)-2-[[1-(tetrahydropyran-4-carbonyl)-4-piperidyl]methyl]-1,3,3a,4,6,6a-hexahydropyrrolo[3,4-c]pyrrol-5-yl]-2-oxo-ethyl]-3-[5-chloro-2-(difluoromethoxy)phenyl]pyrazol-4-yl]pyrazolo[1,5-a]pyrimidine-3-carboxamide], in that order: 0.51 nM, 0.73 nM and 235 nM.
Take `CN1C[C@@H]2[C@H](C1)[C@H](CO)N(C(=O)Cn1cc(NC(=O)c3cnn4cccnc34)c(-c3cc(Cl)ccc3OC(F)F)n1)[C@@H]2c1ccccc1` [Example 37, N-[1-[2-[(3aS,4S,6R,6aR)-6-(hydroxymethyl)-2-methyl-4-phenyl-1,3,3a,4,6,6a-hexahydropyrrolo[3,4-c]pyrrol-5-yl]-2-oxo-ethyl]-3-[5-chloro-2-(difluoromethoxy)phenyl]pyrazol-4-yl]pyrazolo[1,5-a]pyrimidine-3-carboxamide]: the results for the Ki in assay [1] and in assay [2] were 1.1 nM and 0.78 nM, respectively. Moreover, the EC50 in assay [3] (Homo sapiens, TF-1, TF-1 cells) was found to be 11.8 nM.
For `COCCCN1C[C@@H]2CN(C(=O)Cn3cc(NC(=O)c4cnn5cccnc45)c(-c4cc(Cl)ccc4OC(F)F)n3)C[C@@H]2C1` [Example 38, N-[1-[2-[(3aR,6aS)-2-(3-methoxypropyl)-1,3,3a,4,6,6a-hexahydropyrrolo[3,4-c]pyrrol-5-yl]-2-oxo-ethyl]-3-[5-chloro-2-(difluoromethoxy)phenyl]pyrazol-4-yl]pyrazolo[1,5-a]pyrimidine-3-carboxamide], in that order: 0.88 nM, 0.78 nM and 8.5 nM.
In the same order, the values of `CC1(CN2C[C@@H]3CN(C(=O)Cn4cc(NC(=O)c5cnn6cccnc56)c(-c5cc(Cl)ccc5OC(F)F)n4)C[C@@H]3C2)COC1` [Example 39, N-[1-[2-[(3aR,6aS)-2-[(3-methyloxetan-3-yl)methyl]-1,3,3a,4,6,6a-hexahydropyrrolo[3,4-c]pyrrol-5-yl]-2-oxo-ethyl]-3-[5-chloro-2-(difluoromethoxy)phenyl]pyrazol-4-yl]pyrazolo[1,5-a]pyrimidine-3-carboxamide] are 0.55 nM, 0.87 nM and 6.6 nM.
For `CN1CC[C@@H]2CN(C(=O)Cn3cc(NC(=O)c4cnn5cccnc45)c(-c4cc(Cl)ccc4OC(F)F)n3)CC[C@@H]21` [Example 41, N-[1-[2-[(3aR,7aS)-1-methyl-3,3a,4,6,7,7a-hexahydro-2H-pyrrolo[3,2-c]pyridin-5-yl]-2-oxo-ethyl]-3-[5-chloro-2-(difluoromethoxy)phenyl]pyrazol-4-yl]pyrazolo[1,5-a]pyrimidine-3-carboxamide], in that order: 0.91 nM, 1.47 nM and 8 nM.
Take `CN1CC[C@H]2CN(C(=O)Cn3cc(NC(=O)c4cnn5cccnc45)c(-c4cc(Cl)ccc4OC(F)F)n3)CC[C@H]21` [Example 42, N-[1-[2-[(3aS,7aR)-1-methyl-3,3a,4,6,7,7a-hexahydro-2H-pyrrolo[3,2-c]pyridin-5-yl]-2-oxo-ethyl]-3-[5-chloro-2-(difluoromethoxy)phenyl]pyrazol-4-yl]pyrazolo[1,5-a]pyrimidine-3-carboxamide]: the results for the inhibition constant Ki in assay [1] and in assay [2] were 0.69 nM and 0.67 nM, respectively. Also, the EC50 in assay [3] (Homo sapiens, TF-1, TF-1 cells) stood at 3.1 nM.
For `CN1C[C@H]2CN(C(=O)Cn3cc(NC(=O)c4cnn5cccnc45)c(-c4cc(Cl)ccc4OC(F)F)n3)C[C@@]2(c2ccccc2)C1` [Example 43, N-[1-[2-[(3aS,6aS)-2-methyl-3a-phenyl-3,4,6,6a-tetrahydro-1H-pyrrolo[3,4-c]pyrrol-5-yl]-2-oxo-ethyl]-3-[5-chloro-2-(difluoromethoxy)phenyl]pyrazol-4-yl]pyrazolo[1,5-a]pyrimidine-3-carboxamide], in that order: 0.66 nM, 0.36 nM and 15 nM.
In the case of `CN1C[C@@H]2CN(C(=O)Cn3cc(NC(=O)c4cnn5cccnc45)c(-c4cc(Cl)ccc4OC(F)F)n3)C[C@]2(c2ccccc2)C1` [Example 44, N-[1-[2-[(3aR,6aR)-2-methyl-3a-phenyl-3,4,6,6a-tetrahydro-1H-pyrrolo[3,4-c]pyrrol-5-yl]-2-oxo-ethyl]-3-[5-chloro-2-(difluoromethoxy)phenyl]pyrazol-4-yl]pyrazolo[1,5-a]pyrimidine-3-carboxamide], the Ki in assay [1] amounted to 0.54 nM; in assay [2], 0.22 nM. In assay [3] (TF-1 cells), the EC50 turned out to be 6.7 nM.
With `O=C(Nc1cn(CC(=O)N2C[C@H]3CN(CC4(O)CCCCC4)C[C@H]3C2)nc1-c1cc(Cl)ccc1OC(F)F)c1cnn2cccnc12` [Example 46, N-[1-[2-[(3aS,6aR)-2-[(1-hydroxycyclohexyl)methyl]-1,3,3a,4,6,6a-hexahydropyrrolo[3,4-c]pyrrol-5-yl]-2-oxo-ethyl]-3-[5-chloro-2-(difluoromethoxy)phenyl]pyrazol-4-yl]pyrazolo[1,5-a]pyrimidine-3-carboxamide], the Ki in assay [1] came out at 0.58 nM; in assay [2] it was 0.7 nM. In addition, in assay [3] (Homo sapiens, TF-1, TF-1 cells), the EC50 was determined as 8.2 nM.
Turning to `N#CC1(CN2C[C@@H]3CN(C(=O)Cn4cc(NC(=O)c5cnn6cccnc56)c(-c5cc(Cl)ccc5OC(F)F)n4)C[C@@H]3C2)CCCCC1` [Example 47, N-[1-[2-[(3aS,6aR)-2-[(1-cyanocyclohexyl)methyl]-1,3,3a,4,6,6a-hexahydropyrrolo[3,4-c]pyrrol-5-yl]-2-oxo-ethyl]-3-[5-chloro-2-(difluoromethoxy)phenyl]pyrazol-4-yl]pyrazolo[1,5-a]pyrimidine-3-carboxamide], the Ki in assay [1] worked out at 0.33 nM; in assay [2] it was 0.54 nM. In assay [3] (Homo sapiens, TF-1, TF-1 cells), the EC50 worked out at 11 nM.
Regarding `CN1CC[C@@H]2CN(C(=O)Cn3cc(NC(=O)c4cnn5cccnc45)c(-c4cc(Cl)ccc4OC(F)F)n3)C[C@@H]2C1` [Example 49, N-[1-[2-[(3aS,7aS)-5-methyl-3,3a,4,6,7,7a-hexahydro-1H-pyrrolo[3,4-c]pyridin-2-yl]-2-oxo-ethyl]-3-[5-chloro-2-(difluoromethoxy)phenyl]pyrazol-4-yl]pyrazolo[1,5-a]pyrimidine-3-carboxamide], the Ki is 0.5 nM in assay [1] and 0.96 nM in assay [2]. In addition, the EC50 in assay [3] (Homo sapiens, TF-1, TF-1 cells) came out at 11.3 nM.
Consider `CC(C)(O)CCN1C[C@@H]2CN(C(=O)Cn3cc(NC(=O)c4cnn5cccnc45)c(-c4cc(Cl)ccc4OC(F)F)n3)C[C@@H]2C1` [Example 50, N-[1-[2-[(3aR,6aS)-2-(3-hydroxy-3-methyl-butyl)-1,3,3a,4,6,6a-hexahydropyrrolo[3,4-c]pyrrol-5-yl]-2-oxo-ethyl]-3-[5-chloro-2-(difluoromethoxy)phenyl]pyrazol-4-yl]pyrazolo[1,5-a]pyrimidine-3-carboxamide], for which the figures for the Ki in assay [1] and in assay [2] were 0.99 nM and 0.74 nM, respectively. The EC50 in assay [3] (Homo sapiens, TF-1, TF-1 cells) is 32 nM.
In the same order, the values of `O=C(Nc1cn(CC(=O)N2C[C@H]3CN(CCCOC(=O)N4CCOCC4)C[C@H]3C2)nc1-c1cc(Cl)ccc1OC(F)F)c1cnn2cccnc12` [Example 51, 3-[(3aR,6aS)-5-[2-[3-[5-chloro-2-(difluoromethoxy)phenyl]-4-(pyrazolo[1,5-a]pyrimidine-3-carbonylamino)pyrazol-1-yl]acetyl]-1,3,3a,4,6,6a-hexahydropyrrolo[3,4-c]pyrrol-2-yl]propyl morpholine-4-carboxylate] are 1.09 nM, 1.06 nM and 77.9 nM.
For `CN1CC[C@H]2CN(C(=O)Cn3cc(NC(=O)c4cnn5cccnc45)c(-c4cc(Cl)ccc4OC(F)F)n3)C[C@H]2C1` [Example 53, N-[1-[2-[(3aR,7aR)-5-methyl-3,3a,4,6,7,7a-hexahydro-1H-pyrrolo[3,4-c]pyridin-2-yl]-2-oxo-ethyl]-3-[5-chloro-2-(difluoromethoxy)phenyl]pyrazol-4-yl]pyrazolo[1,5-a]pyrimidine-3-carboxamide], in that order: 0.61 nM, 1.22 nM and 10.9 nM.
For `O=C(Nc1cn(CC(=O)N2C[C@H]3CN(CCCN4C(=O)Cc5ccccc54)C[C@H]3C2)nc1-c1cc(Cl)ccc1OC(F)F)c1cnn2cccnc12` [Example 54, N-[1-[2-[(3aR,6aS)-2-[3-(2-oxoindolin-1-yl)propyl]-1,3,3a,4,6,6a-hexahydropyrrolo[3,4-c]pyrrol-5-yl]-2-oxo-ethyl]-3-[5-chloro-2-(difluoromethoxy)phenyl]pyrazol-4-yl]pyrazolo[1,5-a]pyrimidine-3-carboxamide], in that order: 0.76 nM, 0.67 nM and 15.1 nM.

Values taken from patent US9346815B2, “5-chloro-2-difluoromethoxyphenyl pyrazolopyrimidine compounds, compositions and methods of use thereof” (Genentech, Inc., priority 2014, dated 2016).
